Test results taken from paper PMC6792352, “Limited Chemical Structural Diversity Found to Modulate Thyroid Hormone Receptor in the Tox21 Chemical Library” (Environmental Health Perspectives, 2019).
Where a name gives a salt, the structure may show the parent alone.

Assay: in vitro
Settings: rat, gh3-tre-luc cells

Row | SMILES | CC50 at 24 h (AC50 (uM) modified / 1000) [µM] | also measured
1 | COP(=S)(OC)Oc1nc(Cl)c(Cl)cc1Cl [Chlorpyrifos-methyl] | – | CC50 at 24 h (AC50 (uM) modified / 1000, Tox21_110001=Tox21_300700, viability, 1 nM T3 present, 24 h): > 90 µM
2 | CCOP(=S)(OCC)Oc1nc(Cl)c(Cl)cc1Cl [Chlorpyrifos] | – | CC50 at 24 h (AC50 (uM) modified / 1000, Tox21_110001=Tox21_202383, viability, 1 nM T3 present, 24 h): 53.7 µM; CC50 at 24 h (AC50 (uM) modified / 1000, Tox21_110001=Tox21_300148, viability, 1 nM T3 present, 24 h): 81.6 µM
3 | COc1nc(C)nc(NC(=O)NS(=O)(=O)c2ccccc2Cl)n1 [Chlorsulfuron] | > 90 | –
4 | COC(=O)c1c(Cl)c(Cl)c(C(=O)OC)c(Cl)c1Cl [Chlorthal-dimethyl] | > 90 | –
5 | NS(=O)(=O)c1cc(C2(O)NC(=O)c3ccccc32)ccc1Cl (centres unmarked) [Chlorthalidone] | > 20 | –
6 | NC(=S)c1c(Cl)cccc1Cl [Chlorthiamid] | > 90 | –
7 | CC(C)CCC[C@@H](C)[C@H]1CC[C@H]2[C@@H]3CC=C4C[C@@H](O)CC[C@]4(C)[C@H]3CC[C@]12C [Cholesterol] | > 50 | –
8 | C[C@H](CCC(=O)O)[C@H]1CC[C@H]2[C@@H]3[C@H](O)C[C@@H]4C[C@H](O)CC[C@]4(C)[C@H]3C[C@H](O)[C@]12C [Cholic acid piperazine (1:1)] | > 50 | –
9 | C[N+](C)(C)CCO [Cholin acetate] | > 50 | –
10 | O=C(O)c1cc(=O)c2ccccc2o1 [Chromocarb] | > 50 | –
11 | CO[C@@H]1[C@H](O)C[C@@H](O[C@@H]2C[C@H](Oc3cc4cc5c(c(O)c4c(O)c3C)C(=O)[C@@H](O[C@H]3C[C@@H](O[C@H]4C[C@@H](O[C@H]6C[C@](C)(O)[C@@H](OC(C)=O)[C@H](C)O6)[C@H](O)[C@@H](C)O4)[C@H](O)[C@@H](C)O3)[C@H]([C@H](OC)C(=O)[C@@H](O)[C@@H](C)O)C5)O[C@H](C)[C@@H]2OC(C)=O)O[C@@H]1C [Chromomycin A3] | – | CC50 at 24 h (AC50 (uM) modified / 1000, Tox21_110001=Tox21_112065, viability, 1 nM T3 present, 24 h): 0.366 µM
12 | CCOC(=O)COc1ccc2c(C)c(CCN(CC)CC)c(=O)oc2c1 [Chromonar hydrochloride] | > 50 | –
13 | Cc1cc(O)c2c(O)c3c(O)cccc3cc2c1 [Chrysarobin] | > 50 | –
14 | c1ccc2c(c1)ccc1c3ccccc3ccc21 [Chrysene] | > 40 | –
15 | O=c1cc(-c2ccccc2)oc2cc(O)cc(O)c12 [Chrysin] | 62.4 | –
16 | Cc1cc(O)c2c(c1)C(=O)c1cccc(O)c1C2=O [Chrysophanic acid] | > 50 | –
17 | CC(C)C(=O)OCC(=O)[C@@]12O[C@H](C3CCCCC3)O[C@@H]1C[C@H]1[C@@H]3CCC4=CC(=O)C=C[C@]4(C)[C@H]3[C@@H](O)C[C@@]12C [Ciclesonide] | 17.7 | –
18 | Cc1cc(C2CCCCC2)n(O)c(=O)c1 [Ciclopirox olamine] | 1.9 | –
19 | Nc1ccn(C[C@@H](CO)OCP(=O)(O)O)c(=O)n1 [Cidofovir] | > 50 | –
20 | c1ccc(C2(c3ccccc3)CC2C2=NCCN2)cc1 (centres unmarked) [Cifenline succinate] | > 50 | –
21 | CC1(COc2ccc(CC3SC(=O)NC3=O)cc2)CCCCC1 (centres unmarked) [Ciglitizone] | 26.4 | –
22 | CC1(C)C[C@@H]1C(=O)N/C(=C\CCCCSC[C@H](N)C(=O)O)C(=O)O [Cilastatin sodium] | > 50 | –
23 | CCOC(=O)[C@H](CCc1ccccc1)N[C@H]1CCCN2CCC[C@@H](C(=O)O)N2C1=O [Cilazapril] | > 50 | –
24 | COCCOC(=O)C1=C(C)NC(C)=C(C(=O)OC/C=C/c2ccccc2)C1c1cccc([N+](=O)[O-])c1 (centres unmarked) [Cilnidipine] | 12.4 | –
25 | COc1ccc([C@]2(C#N)CC[C@@H](C(=O)O)CC2)cc1OC1CCCC1 [Cilomilast] | > 50 | –

Row | SMILES | CC50 at 24 h (AC50 (uM) modified / 1000) [µM] | also measured
26 | CN(C(=O)CCCOc1ccc2[nH]c(=O)ccc2c1)C1CCCCC1 [Cilostamide] | > 50 | –
27 | O=C1CCc2cc(OCCCCc3nnnn3C3CCCCC3)ccc2N1 [Cilostazol] | > 50 | –
28 | CC(C)NCC(O)c1ccc(N)c(C#N)c1 (centres unmarked) [Cimaterol] | > 50 | –
29 | CN/C(=N/CCSCc1nc[nH]c1C)NC#N [Cimetidine] | > 90 | –
30 | C[C@@H](NCCCc1cccc(C(F)(F)F)c1)c1cccc2ccccc12 [Cinacalcet hydrochloride] | 5.95 | –
31 | CCC(CC)(CC(=O)Nc1cccc(/C=C/c2nc(C3CCC3)cs2)c1)C(=O)O [Cinalukast] | > 50 | –
32 | CN(C)CCCSc1ccccc1NC(=O)/C=C/c1ccccc1 [Cinanserin] | 22.6 | –
33 | C=C[C@H]1C[N@@]2CC[C@H]1C[C@@H]2[C@@H](O)c1ccnc2ccccc12 [Cinchonine] | > 50 | –
34 | O=C(O)c1cc(-c2ccccc2)nc2ccccc12 [Cinchophen] | > 50 | –
35 | COc1cc(/C=C/C(=O)N2CCN(CC(=O)N3CCCC3)CC2)cc(OC)c1OC [Cinepazide maleate] | > 50 | –
36 | O=C(/C=C/c1cccc(F)c1)NC1CC1 [Cinflumide] | > 50 | –
37 | CCn1nc(C(=O)O)c(=O)c2cc3c(cc21)OCO3 [Cinoxacin] | > 20 | –
38 | CCNC(=O)/C=C/c1cccc(Br)c1 [Cinromide] | > 50 | –
39 | CC(C)(Oc1ccc(C2CC2(Cl)Cl)cc1)C(=O)O (centres unmarked) [Ciprofibrate] | > 90 | –
40 | c1ccc(C2CC2)c(OCC2=NCCN2)c1 [Cirazoline] | > 50 | –
41 | COc1cc(N)c(Cl)cc1C(=O)NC1CCN(CCCOc2ccc(F)cc2)CC1OC (centres unmarked) [Cisapride] | 13 | –
42 | C[N+](C)(C)CCOP(=O)(O)OP(=O)([O-])OC[C@H]1O[C@@H](n2ccc(N)nc2=O)[C@H](O)[C@@H]1O [Citicoline sodium] | > 50 | –
43 | CC(C)=CCC/C(C)=C/C=N/O [Citral oxime] | > 90 | –
44 | CC(C)=CCCC(C)=CC#N [Citralva] | > 90 | –
45 | CC(C)=CCCC(C)CC=O (centres unmarked) [Citronellal] | > 90 | –
46 | CC(C)=CCCC(C)CC(=O)O (centres unmarked) [Citronellic acid] | > 90 | –
47 | CC(C)=CCCC(C)CCO (centres unmarked) [Citronellol] | > 100 | –
48 | CCCC(=O)OCCC(C)CCC=C(C)C (centres unmarked) [Citronellyl butyrate] | > 90 | –
49 | CCC(=O)OCCC(C)CCC=C(C)C (centres unmarked) [Citronellyl propionate] | > 90 | –
50 | CC[C@H]1OC(=O)[C@H](C)[C@@H](O[C@H]2C[C@@](C)(OC)[C@@H](O)[C@H](C)O2)[C@H](C)[C@@H](O[C@@H]2O[C@H](C)C[C@H](N(C)C)[C@H]2O)[C@](C)(OC)C[C@@H](C)C(=O)[C@H](C)[C@@H](O)[C@]1(C)O [Clarithromycin] | > 90 | –

Row | SMILES | CC50 at 24 h (AC50 (uM) modified / 1000) [µM] | also measured
51 | O=C(O)[C@H]1/C(=C/CO)O[C@@H]2CC(=O)N21 [Clavulanate lithium] | > 50 | –
52 | CN1C(=O)CN2CCc3ccccc3C2c2cc(Cl)ccc21 (centres unmarked) [Clazolam] | > 50 | –
53 | COc1cc(N)c(Cl)cc1C(=O)NC1CCN(Cc2ccccc2)CC1 [Clebopride maleate] | > 20 | –
54 | Clc1ccc(Cn2c(CN3CCCC3)nc3ccccc32)cc1 [Clemizole hydrochloride] | > 20 | –
55 | CC(C)(C)NCC(O)c1cc(Cl)c(N)c(Cl)c1 (centres unmarked) [Clenbuterol] | – | CC50 at 24 h (AC50 (uM) modified / 1000, Tox21_110001=Tox21_112016, viability, 1 nM T3 present, 24 h): 31.8 µM
56 | C[N+]12CCC(CC1)C(OC(=O)C(O)(c1ccccc1)c1ccccc1)C2 (centres unmarked) [Clidinium bromide] | > 20 | –
57 | CC(C)(C)C(=O)C(Oc1ccc(Cl)cc1)n1ccnc1 (centres unmarked) [Climbazole] | > 50 | –
58 | CCCCCCCCCCCCCCCC(=O)O[C@@H]1[C@@H](O)[C@@H](O)[C@@H]([C@H](NC(=O)[C@@H]2C[C@@H](CCC)CN2C)[C@H](C)Cl)O[C@@H]1SC [Clindamycin palmitate hydrochloride] | > 50 | –
59 | CCC[C@@H]1C[C@@H](C(=O)N[C@@H]([C@H]2O[C@H](SC)[C@H](OP(=O)(O)O)[C@@H](O)[C@H]2O)[C@H](C)Cl)N(C)C1 [Clindamycin phosphate] | > 50 | –
60 | CCC(C)(Oc1ccc(C2(c3ccc(OC(C)(CC)C(=O)O)cc3)CCCCC2)cc1)C(=O)O (centres unmarked) [Clinofibrate] | > 50 | –
61 | CN1C(=O)CC(=O)N(c2ccccc2)c2cc(Cl)ccc21 [Clobazam] | – | CC50 at 24 h (AC50 (uM) modified / 1000, Tox21_110001=Tox21_112608, viability, 1 nM T3 present, 24 h): > 50 µM
62 | C[C@@H](Cc1ccccc1)NCc1ccccc1Cl [Clobenzorex hydrochloride] | – | CC50 at 24 h (AC50 (uM) modified / 1000, Tox21_110001=Tox21_111806, viability, 1 nM T3 present, 24 h): > 50 µM
63 | CN1[C@@H]2CC[C@H]1C[C@@H](OC(c1ccccc1)c1ccc(Cl)cc1)C2 (some centres unmarked) [Clobenztropine] | 5.13 | –
64 | CCC(=O)O[C@]1(C(=O)CCl)[C@@H](C)C[C@H]2[C@@H]3CCC4=CC(=O)C=C[C@]4(C)[C@@]3(F)[C@@H](O)C[C@@]21C [Clobetasol propionate] | > 50 | –
65 | C[C@H]1C[C@H]2[C@@H]3CCC4=CC(=O)C=C[C@]4(C)[C@@]3(F)[C@@H](O)C[C@]2(C)[C@@]1(O)C(=O)CCl [Clobetasol] | > 50 | –
66 | CCCC(=O)O[C@]1(C(=O)CCl)[C@@H](C)C[C@H]2[C@@H]3CCC4=CC(=O)C=C[C@]4(C)[C@@]3(F)C(=O)C[C@@]21C [Clobetasone butyrate] | > 50 | –
67 | CC(CN(C)C)C(C)(O)Cc1ccc(Cl)cc1 (centres unmarked) [Clobutinol hydrochloride] | > 50 | –
68 | C[C@@H]1C[C@H]2[C@@H]3C[C@H](F)C4=CC(=O)C=C[C@]4(C)[C@@]3(Cl)[C@@H](O)C[C@]2(C)[C@H]1C(=O)COC(=O)C(C)(C)C [Clocortolone pivalate] | > 50 | –
69 | C#CCOC(=O)[C@@H](C)Oc1ccc(Oc2ncc(Cl)cc2F)cc1 [Clodinafop-propargyl] | > 90 | –
70 | O=P(O)(O)C(Cl)(Cl)P(=O)(O)O [Clodronic acid, disodium salt] | > 50 | –
71 | Nc1nc(Cl)nc2c1ncn2[C@@H]1O[C@H](CO)[C@@H](O)[C@@H]1F [Clofarabine] | 0.263 | –
72 | CC(C)/N=c1\cc2n(-c3ccc(Cl)cc3)c3ccccc3nc-2cc1Nc1ccc(Cl)cc1 [Clofazimine] | 5.75 | –
73 | NS(=O)(=O)c1ccc(Cl)c(S(N)(=O)=O)c1 [Clofenamide] | > 50 | –
